Consider 8 compounds from PubChem BioAssay (NCI).

Among the test systems are HCC-2998 colon; HT29 colon; MALME-3M melanoma; MDA-MB-231 breast; NCI-H226 lung; NCI-H23 lung; OVCAR-4 ovarian; OVCAR-5 ovarian; SK-MEL-2 melanoma; SK-MEL-5 melanoma.
Holding throughout (experiment): NCI anticancer screen, dose series, 48 h

Where “and” joins values, the source holds several entries; their conditions need not be identical. Equal values may be shown once.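 48-hour exposure; five concentrations; linearly interpolated endpoints. Abbreviation: GI50, concentration required for 50% inhibition of growth. TGI marks complete inhibition of growth.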

For `COc1ccc2nc3cccc([N+](=O)[O-])c3c(NCCN(CCO)CCO)c2c1`, the GI50 with HCC-2998 colon was 13.7 nM; in the assay on HT29 colon, 11.7 nM; in the assay with MALME-3M melanoma, 15.8 nM; in the assay with MDA-MB-231 breast it was 38.5 nM; with NCI-H226 lung, 82.2 nM; in the assay on NCI-H23 lung, 20.2 nM. Besides, the GI50 was 22.2 nM in the assay on OVCAR-4 ovarian, 29.1 nM in the assay on OVCAR-5 ovarian and 11.7 nM in the assay on SK-MEL-2 melanoma. The TGI with HCC-2998 colon stood at 33.1 nM; in the assay with HT29 colon, 43 nM; in the assay on MALME-3M melanoma, 40.8 nM; in the assay with MDA-MB-231 breast it was 420 nM; in the assay with NCI-H226 lung, 536 nM; with NCI-H23 lung it was 48 nM. The TGI in the assay on OVCAR-4 ovarian stood at 68.5 nM; in the assay on OVCAR-5 ovarian, 138 nM; with SK-MEL-2 melanoma, 22.4 nM; with SK-MEL-5 melanoma, 17.5 nM.

As to `CS(=O)(=O)N1CCN(Cc2cc3nc(-c4cccc5[nH]ncc45)nc(N4CCOCC4)c3s2)CC1`, the GI50 with HCC-2998 colon is 614 nM and 153 nM; with HT29 colon it was 284 nM and 101 nM; in the assay with MALME-3M melanoma, 311 nM and 128 nM; in the assay on MDA-MB-231 breast, 2620 nM and 504 nM; with NCI-H226 lung it was 408 nM and 473 nM; in the assay on NCI-H23 lung it was 1370 nM and 603 nM. The GI50 was 2770 nM and 894 nM in the assay with OVCAR-4 ovarian; 357 nM and 234 nM in the assay with OVCAR-5 ovarian; 1270 nM and 325 nM with SK-MEL-2 melanoma; 1110 nM and 537 nM with SK-MEL-5 melanoma. Further, the TGI with HCC-2998 colon was more than 100000 nM; in the assay on HT29 colon, more than 100000 nM; in the assay on MDA-MB-231 breast, more than 100000 nM; in the assay on NCI-H226 lung, more than 21600 nM; in the assay with NCI-H23 lung, more than 100000 nM; in the assay with OVCAR-4 ovarian, more than 100000 nM. Also, the TGI with OVCAR-5 ovarian, in the assay on SK-MEL-2 melanoma and in the assay on SK-MEL-5 melanoma was more than 100000 nM in each case.

In the case of `O=C(c1ccccn1)c1nnn2ccccc12`, the TGI with HCC-2998 colon, in the assay on HT29 colon, with MALME-3M melanoma, with MDA-MB-231 breast, in the assay on NCI-H226 lung and with NCI-H23 lung was more than 100000 nM throughout. Moreover, the TGI in the assay on OVCAR-4 ovarian, in the assay with OVCAR-5 ovarian, in the assay with SK-MEL-2 melanoma and in the assay on SK-MEL-5 melanoma was more than 100000 nM each time.

Turning to `CCOC(=O)c1c[nH]c2c(OCc3ccccc3)c3ccccc3c(O)c2c1=O`, the GI50 was 37400 nM in the assay on HCC-2998 colon; 22200 nM with HT29 colon; 5630 nM in the assay on MALME-3M melanoma; 15200 nM in the assay with MDA-MB-231 breast; 4280 nM in the assay with NCI-H226 lung; 6750 nM in the assay on NCI-H23 lung. In addition, the GI50 in the assay on OVCAR-4 ovarian was 54300 nM; in the assay with OVCAR-5 ovarian it was 54700 nM; in the assay on SK-MEL-2 melanoma, 42500 nM; with SK-MEL-5 melanoma it was 2550 nM. In addition, the TGI in the assay on HCC-2998 colon is more than 100000 nM; in the assay on HT29 colon, more than 100000 nM; in the assay with MALME-3M melanoma it was 26600 nM; in the assay on MDA-MB-231 breast, 60800 nM; in the assay on NCI-H226 lung, 20800 nM; in the assay with NCI-H23 lung, 28600 nM. Moreover, the TGI in the assay on OVCAR-4 ovarian is more than 100000 nM; with OVCAR-5 ovarian, more than 100000 nM; in the assay on SK-MEL-2 melanoma, more than 100000 nM; in the assay on SK-MEL-5 melanoma it was 7520 nM.

Turning to `CN(C)c1ccc(/C=C(\C#N)c2cc3ccccc3n2C)cc1`, the GI50 in the assay on HCC-2998 colon is 293 nM; with HT29 colon, 121 nM; in the assay on MALME-3M melanoma it was 133 nM; with MDA-MB-231 breast it was 509 nM; in the assay with NCI-H226 lung it was 1460 nM; in the assay with NCI-H23 lung, 560 nM. Besides, the GI50 was 701 nM with OVCAR-4 ovarian, 487 nM in the assay on OVCAR-5 ovarian, 328 nM with SK-MEL-2 melanoma and 606 nM with SK-MEL-5 melanoma. Besides, the TGI in the assay on HCC-2998 colon is more than 43800 nM; in the assay on HT29 colon it was 5640 nM; in the assay on MALME-3M melanoma, more than 100000 nM; in the assay with MDA-MB-231 breast it was more than 100000 nM; in the assay on NCI-H226 lung, more than 100000 nM; in the assay on NCI-H23 lung, more than 100000 nM. Moreover, the TGI is more than 100000 nM in the assay with OVCAR-4 ovarian, more than 100000 nM with OVCAR-5 ovarian, more than 100000 nM in the assay on SK-MEL-2 melanoma and 12100 nM in the assay on SK-MEL-5 melanoma.

In the case of `CC1(C)CC[C@]2(C(=O)n3ccnc3)CC[C@]3(C)[C@H](C(=O)C=C4[C@@]5(C)C=C(C#N)C(=O)C(C)(C)[C@@H]5CC[C@]43C)[C@@H]2C1`, the GI50 in the assay with HCC-2998 colon is less than 10 nM; in the assay with HT29 colon it was less than 11.7 nM; in the assay with MALME-3M melanoma, less than 11.1 nM; with MDA-MB-231 breast, 18.4 nM; in the assay with NCI-H226 lung, less than 17.8 nM; in the assay on NCI-H23 lung it was less than 15.1 nM. Also, the GI50 was 35.9 nM in the assay with OVCAR-4 ovarian, 10.3 nM in the assay on OVCAR-5 ovarian, less than 33.6 nM in the assay with SK-MEL-2 melanoma and 92.3 nM with SK-MEL-5 melanoma. In addition, the TGI was less than 10 nM with HCC-2998 colon; less than 18.8 nM with MALME-3M melanoma; 68.2 nM in the assay with MDA-MB-231 breast; less than 49.9 nM in the assay with NCI-H226 lung; 78.6 nM in the assay on NCI-H23 lung; 173 nM in the assay on OVCAR-4 ovarian. The TGI in the assay on OVCAR-5 ovarian stood at 137 nM; with SK-MEL-5 melanoma it was 262 nM.

Regarding `COC1OCC(OS(=O)(=O)c2ccc(C)cc2)C(OC(=O)c2ccccc2)C1OC(=O)c1ccccc1` (stereo unspecified), the GI50 with HCC-2998 colon is more than 100000 nM; in the assay with HT29 colon it was 3960 nM; in the assay with MALME-3M melanoma it was 13700 nM; in the assay on MDA-MB-231 breast, 7020 nM; in the assay on NCI-H226 lung, more than 100000 nM; with NCI-H23 lung, more than 100000 nM. Also, the GI50 with OVCAR-4 ovarian is 9240 nM; with OVCAR-5 ovarian, more than 100000 nM; in the assay with SK-MEL-2 melanoma, 5720 nM; in the assay on SK-MEL-5 melanoma, 4320 nM. The TGI with HCC-2998 colon, in the assay with HT29 colon, in the assay on MALME-3M melanoma, in the assay with MDA-MB-231 breast, in the assay with NCI-H226 lung and in the assay on NCI-H23 lung was more than 100000 nM each time. Moreover, the TGI in the assay on OVCAR-4 ovarian, in the assay on OVCAR-5 ovarian, in the assay on SK-MEL-2 melanoma and in the assay on SK-MEL-5 melanoma was more than 100000 nM in each case.

Turning to `CCCCCCCCCCCC1=NC(C)(C)CN1CCO`, the GI50 is 1870 nM in the assay with HCC-2998 colon; 2120 nM in the assay with HT29 colon; 10200 nM in the assay with MALME-3M melanoma; 3780 nM in the assay with MDA-MB-231 breast; 15400 nM in the assay on NCI-H226 lung; 5560 nM with NCI-H23 lung. The GI50 was 7450 nM with OVCAR-4 ovarian, 15900 nM in the assay with OVCAR-5 ovarian, 8150 nM in the assay on SK-MEL-2 melanoma and 12000 nM in the assay on SK-MEL-5 melanoma. For the same compound, the TGI with HCC-2998 colon stood at 3630 nM; with HT29 colon, 5050 nM; in the assay on MALME-3M melanoma it was 29000 nM; with MDA-MB-231 breast, 15200 nM; in the assay with NCI-H226 lung it was 36200 nM; in the assay with NCI-H23 lung, 18600 nM. Moreover, the TGI stood at 21500 nM with OVCAR-4 ovarian, 30900 nM with OVCAR-5 ovarian, 22400 nM in the assay with SK-MEL-2 melanoma and 25100 nM in the assay on SK-MEL-5 melanoma.
